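Each compound was tested at five concentrations against cells in 96-well plates for 48 hours. TGI: concentration producing complete growth inhibition.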
Assays:
Assay in all cases: NCI tumour cell line growth inhibition, 48 h
[1] = system: NCI-H460 lung
[2] = system: TK-10 renal
[3] = system: A549 NSCLC
[4] = system: EKVX NSCLC
[5] = system: COLO 205 colon
[6] = system: SW-620 colon
[7] = system: LOX IMVI melanoma
[8] = system: HCT-15 colon
[9] = system: HCC-2998 colon
[10] = system: OVCAR-3 ovarian
[11] = system: UO-31 renal
[12] = system: SK-OV-3 ovarian
[13] = system: NCI-H226 lung
[14] = system: IGROV1 ovarian
[15] = system: SF-539 CNS
[16] = system: KM12 colon
[17] = system: M14 melanoma
[18] = system: MCF7 breast

## O=C(CCN1CCC(CCO)CC1)Nc1ccc2c(c1)C(=O)c1ccc(NC(=O)CCN3CCC(CCO)CC3)cc1C2=O
[1]
  TGI: 15.5 µM
[2]
  TGI: > 100 µM
[3]
  TGI: > 100 µM
[4]
  TGI: > 100 µM
[5]
  TGI: 64.6 µM
[6]
  TGI: 29.1 µM
[7]
  TGI: 64 µM
[8]
  TGI: > 100 µM
[9]
  TGI: 88.7 µM
[10]
  TGI: 24.7 µM
[11]
  TGI: > 100 µM
[12]
  TGI: 46.3 µM
[13]
  TGI: 76.5 µM
[14]
  TGI: > 100 µM
[15]
  TGI: 19.4 µM
[16]
  TGI: 10.5 µM

## c1ccc2nn(C3CCCO3)nc2c1 (centres undefined)
[1]
  TGI: > 100 µM
[2]
  TGI: > 100 µM
[17]
  TGI: > 100 µM
[3]
  TGI: > 100 µM
[4]
  TGI: > 100 µM
[5]
  TGI: > 100 µM
[8]
  TGI: > 100 µM
[18]
  TGI: > 100 µM
[9]
  TGI: > 100 µM
[10]
  TGI: > 100 µM
[12]
  TGI: > 100 µM
[13]
  TGI: > 100 µM
[14]
  TGI: > 100 µM
[15]
  TGI: > 100 µM

## O=C(Oc1c(Br)cc(Br)cc1C(=O)Oc1ccccc1)C(=O)Oc1c(Br)cc(Br)cc1C(=O)Oc1ccccc1
[1]
  TGI: > 100 µM
[2]
  TGI: > 100 µM
[17]
  TGI: > 100 µM
[3]
  TGI: 73.8 µM
[4]
  TGI: > 100 µM
[5]
  TGI: 51.8 µM
[6]
  TGI: 51.1 µM
[8]
  TGI: 75.3 µM
[18]
  TGI: 60.8 µM
[9]
  TGI: > 100 µM
[10]
  TGI: 66.2 µM
[11]
  TGI: 49.7 µM
[12]
  TGI: > 100 µM
[13]
  TGI: 46 µM
[14]
  TGI: > 100 µM
[15]
  TGI: 51.8 µM
[16]
  TGI: 84.1 µM

## CC(=O)Oc1ccc(Nn2c3ccccc3c3ccccc32)c(C)c1
[1]
  TGI: > 100 µM
[2]
  TGI: > 100 µM
[17]
  TGI: 74.3 µM
[3]
  TGI: > 100 µM
[5]
  TGI: > 100 µM
[6]
  TGI: 79.9 µM
[8]
  TGI: 82.4 µM
[9]
  TGI: 79.5 µM
[10]
  TGI: > 100 µM
[11]
  TGI: > 100 µM
[12]
  TGI: > 100 µM
[14]
  TGI: 94.2 µM
[16]
  TGI: > 100 µM

## Cc1ccc(C(=O)N2CCCCC2)cc1N=NN(C)C
[1]
  TGI: > 100 µM
[2]
  TGI: > 100 µM
[17]
  TGI: > 100 µM
[3]
  TGI: > 100 µM
[4]
  TGI: > 100 µM
[5]
  TGI: > 100 µM
[6]
  TGI: > 100 µM
[7]
  TGI: > 100 µM
[8]
  TGI: > 100 µM
[9]
  TGI: > 100 µM
[10]
  TGI: > 100 µM
[11]
  TGI: > 100 µM
[13]
  TGI: > 100 µM
[14]
  TGI: > 100 µM
[15]
  TGI: > 100 µM
[16]
  TGI: > 100 µM

## CN(C)CCN(C)C(=O)C1CCCN1C(=O)OCc1ccccc1 (centres undefined)
[1]
  TGI: > 100 µM
[2]
  TGI: > 100 µM
[17]
  TGI: > 100 µM
[3]
  TGI: > 100 µM
[4]
  TGI: > 100 µM
[5]
  TGI: > 100 µM
[6]
  TGI: > 100 µM
[7]
  TGI: > 100 µM
[8]
  TGI: > 100 µM
[9]
  TGI: > 100 µM
[10]
  TGI: > 100 µM
[11]
  TGI: > 100 µM
[12]
  TGI: > 100 µM
[13]
  TGI: > 100 µM
[14]
  TGI: > 100 µM
[15]
  TGI: > 100 µM

## O=C(Cc1ccccc1)N/N=C(/c1nc2ccc([N+](=O)[O-])cc2[nH]c1=O)C(O)c1ccc(C(O)/C(=N/NC(=O)Cc2ccccc2)c2nc3ccc([N+](=O)[O-])cc3[nH]c2=O)cc1 (centres undefined)
[2]
  TGI: > 100 µM
[17]
  TGI: > 100 µM
[3]
  TGI: > 100 µM
[4]
  TGI: > 100 µM
[5]
  TGI: > 100 µM
[6]
  TGI: > 100 µM
[7]
  TGI: > 100 µM
[8]
  TGI: > 100 µM
[9]
  TGI: > 100 µM
[10]
  TGI: > 100 µM
[12]
  TGI: > 100 µM
[13]
  TGI: > 100 µM
[14]
  TGI: > 100 µM
[15]
  TGI: > 100 µM

## O=C1C=CC(=O)c2cc(Sc3ccccc3)c(=O)c(Sc3ccccc3)cc21
[1]
  TGI: > 100 µM
[2]
  TGI: > 100 µM
[17]
  TGI: > 100 µM
[3]
  TGI: > 100 µM
[4]
  TGI: > 100 µM
[5]
  TGI: > 100 µM
[6]
  TGI: > 100 µM
[7]
  TGI: > 100 µM
[8]
  TGI: > 100 µM
[9]
  TGI: > 100 µM
[10]
  TGI: > 100 µM
[11]
  TGI: > 100 µM
[12]
  TGI: > 100 µM
[13]
  TGI: > 100 µM
[14]
  TGI: > 100 µM
[15]
  TGI: > 100 µM
[16]
  TGI: > 100 µM

## Cc1ccc(SCC(CF)OC(C)n2cnc3c(Cl)nc(N)nc32)cc1 (centres undefined)
[1]
  TGI: > 100 µM
[2]
  TGI: > 100 µM
[17]
  TGI: > 100 µM
[3]
  TGI: > 100 µM
[5]
  TGI: > 100 µM
[6]
  TGI: > 100 µM
[7]
  TGI: > 100 µM
[8]
  TGI: > 100 µM
[18]
  TGI: > 100 µM
[9]
  TGI: > 100 µM
[10]
  TGI: > 100 µM
[11]
  TGI: > 100 µM
[12]
  TGI: > 100 µM
[13]
  TGI: > 100 µM
[14]
  TGI: > 100 µM
[15]
  TGI: > 100 µM
[16]
  TGI: > 100 µM

## CCCCOC(=O)NC(Nc1ccc(S(=O)(=O)Nc2ncccn2)cc1)(C(F)(F)F)C(F)(F)F
[1]
  TGI: > 100 µM
[2]
  TGI: > 100 µM
[17]
  TGI: > 100 µM
[3]
  TGI: > 100 µM
[4]
  TGI: > 100 µM
[5]
  TGI: > 100 µM
[6]
  TGI: > 100 µM
[7]
  TGI: > 100 µM
[8]
  TGI: > 100 µM
[9]
  TGI: 65.9 µM
[10]
  TGI: > 100 µM
[11]
  TGI: 43.6 µM
[12]
  TGI: > 100 µM
[13]
  TGI: > 100 µM
[14]
  TGI: > 100 µM
[15]
  TGI: > 100 µM
[16]
  TGI: > 100 µM

## O=[N+]([O-])c1ccc(CN=C2NNS(=O)(=O)c3ccccc32)cc1
[1]
  TGI: > 100 µM
[17]
  TGI: > 100 µM
[3]
  TGI: > 100 µM
[4]
  TGI: > 100 µM
[5]
  TGI: > 100 µM
[6]
  TGI: > 100 µM
[7]
  TGI: > 100 µM
[8]
  TGI: > 100 µM
[9]
  TGI: > 100 µM
[10]
  TGI: > 100 µM
[11]
  TGI: > 100 µM
[13]
  TGI: > 100 µM
[14]
  TGI: > 100 µM
[15]
  TGI: > 100 µM
[16]
  TGI: > 100 µM

## O=C1Oc2cc3c(c4cccc1c24)OCN(c1ccccc1)C3
[1]
  TGI: > 100 µM
[2]
  TGI: > 100 µM
[17]
  TGI: > 100 µM
[3]
  TGI: > 100 µM
[4]
  TGI: > 100 µM
[5]
  TGI: > 100 µM
[6]
  TGI: > 100 µM
[7]
  TGI: > 100 µM
[8]
  TGI: > 100 µM
[9]
  TGI: > 100 µM
[10]
  TGI: > 100 µM
[11]
  TGI: > 100 µM
[12]
  TGI: > 100 µM
[14]
  TGI: > 100 µM
[16]
  TGI: > 100 µM

## O=C(Cc1ccccc1)NN1C(=O)C(Cl)C1c1cccc([N+](=O)[O-])c1 (centres undefined)
[1]
  TGI: > 100 µM
[2]
  TGI: > 100 µM
[17]
  TGI: > 100 µM
[3]
  TGI: > 100 µM
[4]
  TGI: > 100 µM
[5]
  TGI: > 100 µM
[6]
  TGI: > 89.1 µM
[8]
  TGI: > 100 µM
[9]
  TGI: > 100 µM
[10]
  TGI: > 86.8 µM
[11]
  TGI: > 100 µM
[12]
  TGI: > 100 µM
[13]
  TGI: > 90.1 µM
[14]
  TGI: 19.3 µM
[15]
  TGI: > 100 µM
[16]
  TGI: > 100 µM

## Cn1nc(-c2ccccc2)c2c(-c3ccccc3)c3cc(Cl)ccc3nc21
[1]
  TGI: > 100 µM
[2]
  TGI: > 100 µM
[17]
  TGI: > 100 µM
[3]
  TGI: > 100 µM
[4]
  TGI: > 100 µM
[6]
  TGI: > 100 µM
[7]
  TGI: > 100 µM
[8]
  TGI: > 22.9 µM
[18]
  TGI: > 100 µM
[9]
  TGI: > 100 µM
[10]
  TGI: > 100 µM
[11]
  TGI: > 100 µM
[12]
  TGI: > 100 µM
[13]
  TGI: > 100 µM
[14]
  TGI: > 100 µM
[16]
  TGI: > 100 µM
